The values below are quoted from earlier work in patent US20040241255A1, “Pharmaceutical composition containing valerina officinalis extract” (priority 2001, published 2004).

This data set deals with apnea during NREM sleep in rats. To be noted: injected intraperitoneally.
For the molecule `OC[C@H]1O[C@@H](n2cnc3c(N[C@H]4CCC[C@@H]4O)ncnc32)[C@H](O)[C@@H]1O` (relative stereo) [N-[(1S,trans)-2-hydroxycyclopentyl]-adenosine], the “Suppression of apnea during NREM sleep” value is “dose-dependent suppression of apnea”.

`CCNC(=O)C1OC(n2cnc3c(N)nc(NCCc4ccc(CCC(=O)O)cc4)nc32)C(O)C1O.Cl` (stereo not drawn) [2-p-(2-carboxyethyl)-phenethyl-amino-5′-N-ethylcarboxamido-adenosine hydrochloride]: the “Suppression of apnea during NREM sleep” value is on record as “dose-dependent suppression of apnea”.

In the case of `C[C@H](Cc1ccccc1)Nc1ncnc2c1ncn2[C@@H]1O[C@H](CO)[C@@H](O)[C@H]1O` [phenylisopropyl adenosine], the “Suppression of apnea during NREM sleep” value was “dose-dependent suppression of apnea”.
